{
  "source": "the supplement of paper PMC10307832",
  "experiment_in_all_cases": "relative viability (nuclei count vs DMSO), 5 days (fraction); higher = more cells survive",
  "key": {"[1]": {"compound": "C1CC(C1)(C(=O)O)C(=O)O.[NH2-].[NH2-].[Pt+2] [Carboplatin] + N=C(N)NC(=N)NCCc1ccccc1 [Phenformin] (partner 250 µM)", "method_in_brief": "(§1)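 Relative viability is defined as nuclei in treated wells over nuclei in vehicle wells. Duplicate plates were run and medians reported. Lung cancer cell lines in 1536-well plates were dosed by pin tool one day after seeding, with one drug or with a fixed anchor-drug dose plus five library-drug doses (not always all listed) in √10 steps, and nuclei were counted after 5 days.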"}, "[2]": {"compound": "C1CC(C1)(C(=O)O)C(=O)O.[NH2-].[NH2-].[Pt+2] [Carboplatin] + O=C(CCCCCCC(=O)Nc1ccccc1)NO [Vorinostat] (partner 1 µM)", "method_in_brief": "as §1"}, "[3]": {"compound": "CC[C@H](C)N1C=C(C2=C(C=C(C=C21)C3=CN=C(C=C3)N4CCNCC4)C(=O)NCC5=C(C=C(NC5=O)C)C)C [GSK126] + COc1cccc2cc(-c3nc([C@H]4CC[C@H](C(=O)O)CC4)n4ncnc(N)c34)[nH]c12 [OSI-027] (partner 0.5 µM)", "method_in_brief": "as §1"}, "[4]": {"compound": "NS(=O)(=O)OC[C@@H]1C[C@@H](n2ccc3c(N[C@H]4CCc5ccccc54)ncnc32)C[C@@H]1O [MLN4924] + COc1cc2c(Oc3ccc(NC(=O)C4(C(=O)Nc5ccc(F)cc5)CC4)cc3F)ccnc2cc1OCCCN1CCOCC1 [Foretinib] (partner 0.25 µM)", "method_in_brief": "as §1"}},
  "data": [
    {"cell line": "UMC-11", "values": [
      {"measurement": "relative viability", "setting": "[1]; first compound 0.08 µM", "value": 0.346},
      {"measurement": "relative viability", "setting": "[1]; first compound 0.253 µM", "value": 0.324},
      {"measurement": "relative viability", "setting": "[1]; first compound 0.8 µM", "value": 0.317},
      {"measurement": "relative viability", "setting": "[1]; first compound 2.53 µM", "value": 0.331},
      {"measurement": "relative viability", "setting": "[1]; first compound 8 µM", "value": 0.275},
      {"measurement": "relative viability", "setting": "[2]; first compound 0.08 µM", "value": 0.425},
      {"measurement": "relative viability", "setting": "[2]; first compound 0.253 µM", "value": 0.364},
      {"measurement": "relative viability", "setting": "[2]; first compound 0.8 µM", "value": 0.36},
      {"measurement": "relative viability", "setting": "[2]; first compound 2.53 µM", "value": 0.37},
      {"measurement": "relative viability", "setting": "[2]; first compound 8 µM", "value": 0.283},
      {"measurement": "relative viability", "setting": "[3]; first compound 0.08 µM", "value": 0.563},
      {"measurement": "relative viability", "setting": "[3]; first compound 0.253 µM", "value": 0.522},
      {"measurement": "relative viability", "setting": "[3]; first compound 0.8 µM", "value": 0.484},
      {"measurement": "relative viability", "setting": "[3]; first compound 2.53 µM", "value": 0.44},
      {"measurement": "relative viability", "setting": "[3]; first compound 8 µM", "value": 0.43},
      {"measurement": "relative viability", "setting": "[4]; first compound 0.04 µM", "value": 0.57},
      {"measurement": "relative viability", "setting": "[4]; first compound 0.1265 µM", "value": 0.307},
      {"measurement": "relative viability", "setting": "[4]; first compound 0.4 µM", "value": 0.298},
      {"measurement": "relative viability", "setting": "[4]; first compound 1.265 µM", "value": 0.191},
      {"measurement": "relative viability", "setting": "[4]; first compound 4 µM", "value": 0.173}
    ]}
  ]
}
